Measured values as given in patent publication US11807693B2 (priority 2014, dated 2023).
Starred links: 1 amine or outer side, 2 acyl side, 3 side chain; linkers in the order of their positions; H or OH if unused. Non-standard residues stand in square brackets, D forms with d. Residues, ends and D or L forms follow the SMILES beside them. *: point of attachment. dBip = N[C@H](Cc1ccc(-c2ccccc2)cc1)C(=O)O; Oic = O=C(O)[C@@H]1C[C@@H]2CCCC[C@@H]2N1; Phe(4-Cl) = N[C@@H](Cc1ccc(Cl)cc1)C(=O)O; Phe(4-F) = N[C@@H](Cc1ccc(F)cc1)C(=O)O; Phe(4-I) = N[C@@H](Cc1ccc(I)cc1)C(=O)O; γGlu = O=C(O)[C@H](CCC(=O)[*:2])N[*:1]; 2Nal = N[C@@H](Cc1ccc2ccccc2c1)C(=O)O; HOOC(CH2)8CO = O=C(O)CCCCCCCCC(=O)*; d(β3hF) = N[C@@H](CC(=O)O)Cc1ccccc1; NMeR = CN[C@@H](CCCNC(=N)N)C(=O)O; Palmitoyl = CCCCCCCCCCCCCCCC(=O)*; Tridecanoyl = CCCCCCCCCCCCC(=O)*; hArg = N=C(N)NCCCC[C@H](N)C(=O)O; Cha = N[C@@H](CC1CCCCC1)C(=O)O; NMeL = CN[C@@H](CC(C)C)C(=O)O; αMeL = CC(C)C[C@](C)(N)C(=O)O; αMeOrn = C[C@](N)(CCCN)C(=O)O; αMeP = C[C@@]1(C(=O)O)CCCN1; β3hP = O=C(O)C[C@@H]1CCCN1; Pip = O=C(O)[C@@H]1CCCCN1; Nle = CCCC[C@H](N)C(=O)O; Orn = NCCC[C@H](N)C(=O)O; Deg = CCC(N)(CC)C(=O)O; AEEA = NCCOCCOCC(=O)O; Aib = CC(C)(N)C(=O)O

The compounds below were run against T1, human APJ receptor (Homo sapiens, UniProt P35414) (assay: [35S] GTPγS assay, human APJ receptor). Details: not given.
T1 construct: expressed in transfected cells
T1 sequence (P35414 1-380): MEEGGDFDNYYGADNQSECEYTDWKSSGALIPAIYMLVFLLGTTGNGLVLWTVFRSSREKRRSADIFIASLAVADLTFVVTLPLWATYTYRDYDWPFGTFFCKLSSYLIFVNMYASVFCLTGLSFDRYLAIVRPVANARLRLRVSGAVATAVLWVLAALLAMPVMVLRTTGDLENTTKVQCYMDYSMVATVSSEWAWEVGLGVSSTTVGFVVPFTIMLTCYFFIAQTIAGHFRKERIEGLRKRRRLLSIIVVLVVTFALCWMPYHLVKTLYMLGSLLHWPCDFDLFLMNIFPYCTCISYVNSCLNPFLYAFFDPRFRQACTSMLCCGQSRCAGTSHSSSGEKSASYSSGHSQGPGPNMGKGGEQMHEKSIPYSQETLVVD
Assay type: biochemical
CCCC[C@H](NC(=O)[C@@H]1CCCN1C(=O)CNC(=O)[C@H](CCCCN)NC(=O)[C@H](Cc1c[nH]cn1)NC(=O)[C@H](CO)NC(=O)[C@H](CC1CCCCC1)NC(=O)[C@H](CCCCNC(=N)N)NC(=O)[C@@H]1CCCN1C(=O)[C@H](CCCNC(=N)N)NC(=O)[C@H](CCC(N)=O)NC(=O)[C@H](CCCCNC(=N)N)NC(=O)[C@H](CCCCNC(=N)N)NC(=O)[C@H](Cc1ccccc1)NC(=O)[C@H](CCCN)NC(C)=O)C(=O)N[C@@H](Cc1ccc2ccccc2c1)C(=O)O [compound 49] (Ac-[Orn]F[hArg][hArg]QRP[hArg][Cha]SHKGP[Nle][2Nal]-OH) gave an EC50 of 0.159 nM. CCCC[C@H](NC(=O)[C@@H]1C[C@@H]2CCCC[C@@H]2N1C(=O)CNC(=O)[C@H](CCCCN)NC(=O)[C@H](Cc1c[nH]cn1)NC(=O)[C@H](CO)NC(=O)[C@H](CC1CCCCC1)NC(=O)[C@H](CCCNC(=N)N)N(C)C(=O)[C@@H]1CCCN1C(=O)[C@H](CCCCNC(=N)N)NC(=O)[C@H](CCC(N)=O)NC(=O)[C@H](CCCCNC(=N)N)NC(=O)[C@H](CCCCNC(=N)N)NC(C)=O)C(=O)N1CCC[C@H]1C(=O)N[C@@H](Cc1ccc(Cl)cc1)C(=O)O [compound 56] (Ac-[hArg][hArg]Q[hArg]P[NMeR][Cha]SHKG[Oic][Nle]P[Phe(4-Cl)]-OH) gave an EC50 of 0.176 nM.

Same assay, conditions: Table 16
In the case of CCCCCCCCCCCCC(=O)N[C@@H](CCC(=O)NCCOCCOCC(=O)NCCOCCOCC(=O)N[C@H](CCC(N)=O)C(=O)N[C@@H](CCCNC(=N)N)C(=O)N1CCC[C@H]1C(=O)N(C)[C@@H](CCCNC(=N)N)C(=O)N[C@@H](CC1CCCCC1)C(=O)N[C@@H](CO)C(=O)N[C@@H](Cc1c[nH]cn1)C(=O)N[C@@H](CCCCN)C(=O)NCC(=O)N1[C@H](C(=O)N[C@@H](CCCC)C(=O)NC(CC)(CC)C(=O)N[C@@H](Cc2ccc(Cl)cc2)C(=O)O)C[C@@H]2CCCC[C@@H]21)C(=O)O [compound 549] ({Tridecanoyl-γGlu-AEEA-AEEA}-[dQ]RP[NMeR][Cha]SHKG[Oic][Nle][Deg][Phe(4-Cl)]-OH), the EC50 is reported as 1.2 nM. For CCCCCCCCCCCCC(=O)N[C@@H](CCC(=O)NCCOCCOCC(=O)NCCOCCOCC(=O)N[C@@H](CCC(N)=O)C(=O)N[C@@H](CCCNC(=N)N)C(=O)N1CCC[C@H]1CC(=O)N(C)[C@@H](CCCNC(=N)N)C(=O)N[C@@H](CC1CCCCC1)C(=O)N[C@@H](CO)C(=O)N[C@@H](Cc1c[nH]cn1)C(=O)N[C@@H](CCCCN)C(=O)NCC(=O)N1[C@H](C(=O)N[C@@H](CCCC)C(=O)N2CCC[C@H]2C(=O)N[C@@H](Cc2ccc(Cl)cc2)C(=O)O)C[C@@H]2CCCC[C@@H]21)C(=O)O [compound 441] ({Tridecanoyl-γGlu-AEEA-AEEA}-QR[β3hP][NMeR][Cha]SHKG[Oic][Nle]P[Phe(4-Cl)]-OH), the EC50 was 1.9 nM. Compound CCCCCCCCCCCCC(=O)N[C@@H](CCC(=O)NCCOCCOCC(=O)NCCOCCOCC(=O)N[C@H](CCC(N)=O)C(=O)N[C@H](CCC(=O)O)C(=O)N1CCC[C@H]1C(=O)N(C)[C@@H](CCCNC(=N)N)C(=O)N[C@@H](CC1CCCCC1)C(=O)N[C@@H](CO)C(=O)N[C@@H](Cc1c[nH]cn1)C(=O)N[C@@H](CCCCN)C(=O)NCC(=O)N1[C@H](C(=O)N[C@@H](CCCC)C(=O)NC(C)(C)C(=O)N[C@@H](Cc2ccc(Cl)cc2)C(=O)O)C[C@@H]2CCCC[C@@H]21)C(=O)O [compound 525] ({Tridecanoyl-γGlu-AEEA-AEEA}-[dQ][dE]P[NMeR][Cha]SHKG[Oic][Nle][Aib][Phe(4-Cl)]-OH) has an EC50 of 159 nM. CCCCCCCCCCCCC(=O)N[C@@H](CCC(=O)NCCOCCOCC(=O)NCCOCCOCC(=O)N[C@@H](CCC(N)=O)C(=O)N[C@@H](CCCNC(=N)N)C(=O)N1CCC[C@H]1C(=O)N(C)[C@@H](CCCNC(=N)N)C(=O)N[C@@H](CC1CCCCC1)C(=O)N[C@@H](CO)C(=O)N[C@@H](Cc1c[nH]cn1)C(=O)N[C@@H](CCCCN)C(=O)NCC(=O)N1[C@H](C(=O)N[C@@H](CCCC)C(=O)N[C@@H](Cc2ccc(Cl)cc2)C(=O)O)C[C@@H]2CCCC[C@@H]21)C(=O)O [compound 409] ({Tridecanoyl-γGlu-AEEA-AEEA}-QRP[NMeR][Cha]SHKG[Oic][Nle][Phe(4-Cl)]-OH) was tested, and the EC50 was 1 nM. For CCCCCCCCCCCCC(=O)N[C@@H](CCC(=O)NCCOCCOCC(=O)NCCOCCOCC(=O)N[C@@H](CCCNC(=N)N)C(=O)N[C@@H](CCC(N)=O)C(=O)N[C@@H](CCCNC(=N)N)C(=O)N1CCC[C@H]1C(=O)N[C@@H](CCCCN)C(=O)N[C@@H](CC1CCCCC1)C(=O)N[C@@H](C)C(=O)N[C@@H](C)C(=O)N[C@@H](CCCC)C(=O)NCC(=O)N1[C@H](C(=O)N[C@@H](CCCC)C(=O)N2CCC[C@H]2C(=O)N[C@@H](Cc2ccc(Cl)cc2)C(=O)O)C[C@@H]2CCCC[C@@H]21)C(=O)O [compound 346] ({Tridecanoyl-γGlu-AEEA-AEEA}-RQRPK[Cha]AA[Nle]G[Oic][Nle]P[Phe(4-Cl)]-OH), the EC50 was 2.77 nM. Compound CCCCCCCCCCCCC(=O)N[C@@H](CCC(=O)NCCOCCOCC(=O)NCCOCCOCC(=O)N[C@@H](CCC(N)=O)C(=O)N[C@@H](CCCNC(=N)N)C(=O)N1CCCC[C@H]1C(=O)N(C)[C@@H](CCCNC(=N)N)C(=O)N[C@@H](CC1CCCCC1)C(=O)N[C@@H](CO)C(=O)N[C@@H](Cc1c[nH]cn1)C(=O)N[C@@H](CCCCN)C(=O)NCC(=O)N1[C@H](C(=O)N[C@@H](CCCC)C(=O)N2CCC[C@H]2C(=O)N[C@@H](Cc2ccc(Cl)cc2)C(=O)O)C[C@@H]2CCCC[C@@H]21)C(=O)O [compound 440] ({Tridecanoyl-γGlu-AEEA-AEEA}-QR[Pip][NMeR][Cha]SHKG[Oic][Nle]P[Phe(4-Cl)]-OH) has an EC50 of 3.48 nM. CCCCCCCCCCCCC(=O)N[C@@H](CCC(=O)NCCOCCOCC(=O)NCCOCCOCC(=O)N[C@H](CCC(N)=O)C(=O)N[C@@H](CCC(=O)O)C(=O)N1CCC[C@H]1C(=O)N(C)[C@@H](CCCNC(=N)N)C(=O)N[C@@H](CC1CCCCC1)C(=O)N[C@@H](CO)C(=O)N[C@@H](Cc1c[nH]cn1)C(=O)N[C@@H](CCCCN)C(=O)NCC(=O)N1[C@H](C(=O)N[C@@H](CCCC)C(=O)NC(C)(C)C(=O)N[C@@H](Cc2ccc(Cl)cc2)C(=O)O)C[C@@H]2CCCC[C@@H]21)C(=O)O [compound 524] ({Tridecanoyl-γGlu-AEEA-AEEA}-[dQ]EP[NMeR][Cha]SHKG[Oic][Nle][Aib][Phe(4-Cl)]-OH) was tested, and the EC50 was 53.1 nM.

Same assay, conditions: human APJ receptor
CC(C)C[C@@H](C(=O)N[C@@H](CO)C(=O)N[C@@H](Cc1c[nH]cn1)C(=O)N[C@@H](CCCCN)C(=O)NCC(=O)N1[C@H](C(=O)N[C@@H](Cc2ccc(I)cc2)C(=O)N2CCC[C@H]2C(=O)N[C@H](Cc2ccc(-c3ccccc3)cc2)C(=O)O)C[C@@H]2CCCC[C@@H]21)N(C)C(=O)[C@@H](CCCNC(=N)N)NC(=O)[C@@H]1CCCN1C(=O)[C@H](CCCCNC(=N)N)NC(=O)[C@H](CCC(N)=O)NC(=O)COCCOCCNC(=O)COCCOCCNC(=O)CC[C@H](NC(=O)CCCCCCCCC(=O)O)C(=O)O [compound 288] ({HOOC(CH2)8CO-γGlu-AEEA-AEEA}-Q[hArg]P[dR][NMeL]SHKG[Oic][Phe(4-I)]P[dBip]-OH) showed an EC50 of 38.5 nM. For CCCCCCCCCCCCCCCC(=O)N[C@@H](CCC(=O)NCCOCCOCC(=O)NCCOCCOCC(=O)N[C@H](CCC(N)=O)C(=O)N[C@@H](CCCNC(=N)N)C(=O)N1CCC[C@H]1C(=O)N(C)[C@@H](CCCNC(=N)N)C(=O)N[C@@H](CC1CCCCC1)C(=O)N[C@@H](CO)C(=O)N[C@@H](Cc1c[nH]cn1)C(=O)N[C@@H](Cc1ccc(F)cc1)C(=O)NCC(=O)N1[C@H](C(=O)N[C@@H](CCCC)C(=O)N2CCC[C@H]2CC(=O)N[C@@H](CC(=O)O)Cc2ccccc2)C[C@@H]2CCCC[C@@H]21)C(=O)O [compound 622] ({Palmitoyl-γGlu-AEEA-AEEA}-[dQ]RP[NMeR][Cha]SH[Phe(4-F)]G[Oic][Nle][β3hP][d(β3hF)]-OH), the EC50 was 11.8 nM. Work on CCCCCCCCCCCCCCCC(=O)N[C@@H](CCC(=O)NCCOCCOCC(=O)NCCOCCOCC(=O)N[C@H](CCC(N)=O)C(=O)N[C@@H](CCCNC(=N)N)C(=O)N1CCC[C@H]1C(=O)N(C)[C@@H](CCCNC(=N)N)C(=O)N[C@@](C)(CC(C)C)C(=O)N[C@@H](CO)C(=O)N[C@@H](Cc1c[nH]cn1)C(=O)N[C@@](C)(CCCN)C(=O)NCC(=O)N1[C@H](C(=O)N[C@@H](CCCC)C(=O)N2CCC[C@H]2CC(=O)N[C@@H](Cc2ccc(Cl)cc2)C(=O)O)C[C@@H]2CCCC[C@@H]21)C(=O)O [compound 635] ({Palmitoyl-γGlu-AEEA-AEEA}-[dQ]RP[NMeR][αMeL]SH[αMeOrn]G[Oic][Nle][β3hP][Phe(4-Cl)]-OH) yielded an EC50 of 1.62 nM. Work on CCCC[C@H](NC(=O)[C@]1(C)CCCN1C(=O)CNC(=O)[C@H](CCCCN)NC(=O)[C@H](Cc1c[nH]cn1)NC(=O)[C@H](CO)NC(=O)[C@H](CC1CCCCC1)NC(=O)[C@H](CCCNC(=N)N)N(C)C(=O)[C@@H]1CCCN1C(=O)[C@H](CCCNC(=N)N)NC(=O)[C@@H](CCC(N)=O)NC(C)=O)C(=O)NC(C)(C)C(=O)N[C@@H](Cc1ccc(Cl)cc1)C(=O)O [compound 93] (Ac-[dQ]RP[NMeR][Cha]SHKG[αMeP][Nle][Aib][Phe(4-Cl)]-OH) yielded an EC50 of 0.229 nM. CC(C)C[C@@H](C(=O)N[C@@H](CO)C(=O)N[C@@H](Cc1c[nH]cn1)C(=O)N[C@@H](CCCCN)C(=O)NCC(=O)N1[C@H](C(=O)N[C@@H](Cc2ccc(I)cc2)C(=O)N2CCC[C@H]2C(=O)N[C@H](Cc2ccc(-c3ccccc3)cc2)C(=O)O)C[C@@H]2CCCC[C@@H]21)N(C)C(=O)[C@@H](CCCNC(=N)N)NC(=O)[C@@H]1CCCN1C(=O)[C@H](CCCCNC(=N)N)NC(=O)[C@H](CCC(N)=O)NC(=O)[C@@H](CCCNC(=N)N)NC(=O)[C@H](CCCCNC(=N)N)NC(=O)COCCOCCNC(=O)COCCOCCNC(=O)CC[C@H](NC(=O)CCCCCCCCC(=O)O)C(=O)O [compound 291] gave an EC50 of 3.38 nM.
